Results taken from US11510872B2, “Nanoparticle-lipid composite carriers and uses thereof” (Northwestern University, priority 2017, dated 2022).

Test system: HepG2 cells
Assay: MTS assay for cell viability / cytotoxicity in HepG2 cells
Format: cell-based
Settings: Homo sapiens; HepG2 cells after 48 h, without thermal activation; read-out: IC50 μg PTX/ml
Description: HepG2 liver cancer cell line and J774 murine macrophage cells (provided by Prof. Colby Shad Thaxton, Department of Urology, Feinberg School of Medicine, Northwestern University) were grown in RPMI-1640 medium containing 10% FBS and penicillin/streptomycin (100 units/mL and 100 μg/mL, respectively). The cells were cultured at 37° C. with 5% CO2 atmosphere in T75 flasks.
The biocompatibility of the MLCCs and cytotoxicity was tested using MTS (3-(4,5-dimethylthiazol-2-yl)-5-(3-carboxymethoxyphenyl)-2-(4-sulfophenyl)-2H-tetrazolium) assay. Briefly, J774 and HepG2 cells were plated at 1×10^5 cells per well in 24-well plate with 70-80% of confluency. […] To compare the effect of drug loaded MLCCs with native drug, Cells were also treated with different concentration of native drug (similar to amount of drug entrapped within the MLCCs as calculated from measurement via HPLC). […] MTS assay was used to quantify the cell viability according to the protocol provided by the manufacture (CellTiter 96 Aqueous One Solution Cell Proliferation Assay; Promega). The optical densities were recorded at 490 nm and 700 nm using BioTek Synergy™ 4 Hybrid Microplate Reader. The background absorbance at 700 nm was subtracted from absorbance at 490 nm. […] The IC50 values were calculated by nonlinear curve fit using dose response-inhibition equation with Graphpad Prism 5.0. […]

## CC(=O)O[C@H]1C(=O)[C@@]2(C)[C@H]([C@H](OC(=O)c3ccccc3)[C@]3(O)C[C@H](OC(=O)[C@H](O)[C@@H](NC(=O)c4ccccc4)c4ccccc4)C(C)=C1C3(C)C)[C@]1(OC(C)=O)CO[C@@H]1C[C@@H]2O [PTX, paclitaxel]
  IC50: 0.63 µg/mL
